# Where two headings read alike, the source gives them in different places.
# What was measured:
# [1] = test system: Vero cells; test: Vero cell viability/toxicity (96 AQueous One Solution / WST-1); format: cell-based
# Procedure: (§1) Drug potency and cell toxicity. EC50 calculations were determined by using AAT Bioquest's EC50 calculator. Cell toxicity at different concentrations of drugs as indicated was determine using the Cell Proliferation Reagent WST-1 (Roche Diagnostics) or cellular 96® Aqueous One Reagent viability reagent according to manufacturer's instructions. For 293T cells, the concentration of DMSO was 0.2% or less and assays were carried out with DMEM with 10% serum. Cell toxicity experiments were repeated twice.
# [2] = test system: HSV-2; test: Transmission electron microscopy of HSV-2 infected Vero cells, location of virus particles; format: cell-based, Herpes simplex virus-2(A/B-G); conditions: 24 h, 80 cells
# Procedure: Cellular location of tenatoprazole inhibition. We next imaged herpesvirus infected-Vero cells using transmission electron microscopy to determine the site of inhibition of release of virus and whether it was similar to observations of HIV-1 release from 293T cells. Vero cells grown on glass cover slips were infected with HSV-2 at MOI of 0.1 pfu/cell for 2 h and then treated for 24 h with 105 μM tenatoprazole or vehicle control. In the no drug control, virus particles were in both the nucleus and cytoplasm near the cell surface (FIG. 2A). In the tenatoprazole-treated cells the cytosol of all of the intact cells was largely devoid of virus particles (FIG. 2B). Instead, we observed large pockets of granular material accumulated in the nucleus and immature virus particles inside the nucleus and lining the inside of the nuclear membrane (inset, B).
# We next carried out a transmission electron microscopic examination of cells infected with HSV-2 at a MOI 0.1 in the presence and absence of 18 μM ilaprazole to determine if this drug causes the accumulation of virus particles in the nucleus of cells similar to tenatoprazole. Without drug, we observe particles in the cytoplasm and in the nucleus (FIGS. 4A & B), in the presence of drug little or no viral particles are found in the cytoplasm (FIGS. 4C & D). In both heavily infected cells (FIGS. 4A & C) and mildly infected cells (FIGS. 4B & D), treatment lead to particles being detected in the nucleus and arrayed along the nuclear membrane but lacking in the cytosol. […] Similar results were obtained with HSV-1 infected cells (FIG. 4E-H). Particles are seen in both the cytoplasm and nucleus in the absence of drug and just in the nucleus in the presence of drug. […] The lower total infectious virus detected in Table 3 (FIG. 7) is consistent with blockage of the virus passaging out of the nucleus into the cytoplasm where membranes are exchanged and virus becomes infectious.
# Transmission electron Microscopy. Vero cells on glass cover slips were infected with HSV-2 at a MOI of 0.1 for two hours. Then 105 μM of tenatoprazole or 18 μM Ilaprazole was added and cells incubated for 24 hours. Tissue samples were fixed in 0.1 M sodium cacodylate buffer pH 7.3 containing 2% paraformaldehyde and 2.5% glutaraldehyde and post-fixed with 2% osmium tetroxide in unbuffered aqueous solution. The samples were rinsed with distilled water, en bloc stained with 3% uranyl acetate, rinsed with distilled water, dehydrated in ascending grades of ethanol, transitioned with propylene oxide, embedded in the resin mixture of Embed 812 kit and cured in a 60° C. oven. Samples were sectioned on a Leica Ultracut UC6 ultramicrotome. 1 μm thick sections were collected and stained with Toluidine Blue O and 70 nm sections were collected on 200 mesh copper grids; thin sections were stained with uranyl acetate and Reynolds lead citrate. Transmission electron microscopy (TEM) was performed on a FEI Tecnai Spirit G2.
# [3] = test system: HSV-1; test: Release of HSV-1 from infected Vero cells, plaque assay; format: cell-based, Herpes simplex virus-1 (Kos strain); conditions: for EC50: Human alphaherpesvirus 1; for Duration of inhibition of HSV-1 release after a single application: data not shown
# Procedure: (§2) We infected Vero cells with HSV-1 and HSV-2 for two hours at a multiplicity of infection (MOI in pfu\cell) of 0.1 to assay the antiviral activity of tenatoprazole. Following infection, cells were treated with different concentrations of tenatoprazole. After 24 or 48 h the media fractions were collected and released virus titers were determined by standard plaque assays (30). Tenatoprazole caused a 3-log drop of HSV-1 and 4-5 log drop of HSV-2 in released infectious virus from Vero cells at 24 hours after infection in a dose dependent manner (Table 1, shown in FIG. 5, columns 2 and 3) with calculated EC50's ranging from 48-80 μM. Total virus titer was also determined to differentiate between virus released into the media and infectious particles present in cell lysate. […] The concentrations of tenatoprazole that blocked virus release were nontoxic to Vero cells as determined by a 96® AQueous One Solution cell proliferation assay reagent (Table 1, shown in FIG. 5, column 7). Taken together, tenatoprazole inhibited levels of both released and infectious virus particles without affecting cell viability at effective concentrations.
# (§3) Herpesvirus infection of Vero cells. Vero cells (0.8×10^6 cells/well of a 6-well plate) were infected with HSV-1 or HSV-2 at a MOI of 0.1 pfu/cell in DMEM with 1% serum for two hours in the C02 incubator at 37° C. In one experiment looking at the effect of tenatoprazole on HSV-2 release from cells 24 and 48 h a MOI of 3 pfu/cell was used. The cell supernatants were aspirated and replaced with 1 ml (24 h) or 2 ml (48 h and 72 h) of DMEM with 1% serum with DMSO or different concentrations of drug (tenatoprazole, ilaprazole, or analogs) dissolved in DMSO. After 24 or 48 h incubation, the cell supernatant was collected and frozen at −80° C. Virus titer in the cell media fraction was determined by standard plaque assays using 10-fold serial dilutions of cell supernatants of Vero cells and incubated for 48 h after which cells were fixed and stained to count the plaques (22). For determination of total virus (extracellular+cytoplasmic), virus infected cells were incubated for 24 h with and without drug presence, then the plate of cells were subjected to 3 cycles of freeze/thawing (−80° C./37° C.) 30 min each prior to collecting the supernatant after centrifugation for measurement of total virus titer. Virus titer was measured by standard plaque assay as above.
# as §1
# [4] = test system: HSV-2; test: Release of HSV-2 from infected Vero cells, plaque assay; format: cell-based, Herpes simplex virus-2(A/B-G); conditions: for EC50: Human alphaherpesvirus 2, MOI 0.1, 24 h, read-out: EC50, inhibition of HSV-2 release; for Total infectious virus (released plus inside cells), HSV-2: 24 h, freeze/thaw lysate
# Procedure: as §2
# To examine the effects of the compounds on the release of HSV-2 from Vero cells, we infected the cells with virus two hours prior to treatment with media containing different concentrations of compound. We incubated the cells for 24 or 48 hours and then collected the cell media fractions.
# as §3, §1
# [5] = Vero cells, MOI 0.1, 24 h, read-out: EC50, inhibition of HSV-1 release
# [6] = Vero cells, 24 hours after infection, dose dependent
SMILES,Cell toxicity to Vero cells [1],"Average number of virus particles in the nucleus ([2]; HSV-2, 18 μM ilaprazole)","Range of number of virus particles in the nucleus ([2]; HSV-2, 18 μM ilaprazole)","Virus particles in the cytoplasm ([2]; HSV-2, 18 μM ilaprazole)","EC50 ([3]; Vero cells, 72 h after a single application (Table 3A columns 2 & 4, HSV-1), read-out: 72 h EC50, inhibition of virus release)","EC50 [3, 5]","Total infectious virus (released plus inside cells), HSV-1 ([3]; Vero cells, freeze/thaw lysate)",Duration of inhibition of HSV-1 release after a single application [3],EC50 ([4]; Vero cells),"Anti-HSV-2 activity (release from Vero cells), in words ([4]; Table 2, 24 h)","Total infectious virus (released plus inside cells), HSV-2 ([4]; Vero cells)","Cell toxicity to Vero cells ([1]; at concentrations that block virus release, 24 h)","Average number of virus particles in the nucleus ([2]; HSV-2, 105 μM tenatoprazole)","Virus particles in the cytoplasm ([2]; HSV-2, 105 μM tenatoprazole)","Drop in released infectious HSV-1 [3, 6]","Drop in released infectious HSV-2 [4, 6]",Duration of inhibition of HSV-2 release after a single application ([4]; data not shown)
"COc1ccnc(C[S+]([O-])c2nc3ccc(-n4cccc4)cc3[nH]2)c1C (stereo not drawn) [Ilaprazole, 2-[(4-methoxy-3-methylpyridin-2-yl)methylsulfinyl]-6-pyrrol-1-yl-1H-benzimidazole]",did not observe cell toxicity,31 particles,9-56 particles,0 particles,0.8 to 1.2 µM,3 to 9 µM,significant drop in total virus,Significant inhibition was still observed at 4 and 5 days,3 to 9 µM,potent antiviral activity,significant drop in total virus,,,,,,
COc1ccc2[nH]c([S+]([O-])Cc3ncc(C)c(OC)c3C)nc2n1 (stereo not drawn) [Tenatoprazole],,,,,,48 to 80 µM,,began to fall off after 48 h,48 to 80 µM,,"reduced by tenatoprazole, but not as strongly as virus released into the media",nontoxic,31 particles,did not detect virus particles,3 log,4-5 log,began to fall off after 48 h

# Reference: patent publication US11666562B2, “Ilaprazole for inhibiting the release of enveloped viruses from cells” (Northwestern University, priority 2020, dated 2023)
